Consider 19 compounds from publication PMC5705205 (Bioorganic & medicinal chemistry letters, 2017).

Assay [1] concerns quinone reductase 1 (QR1). Briefly: QR1 induction assay. The conditions noted are these: for fold induction at 50 µM: read-out: QR1 IR (induction ratio), induction ratio at a concentration of 50 μM. Format: cell-based.
Another assay deals with T1, aromatase (Homo sapiens, UniProt P11511).
T1 sequence (P11511 1-503): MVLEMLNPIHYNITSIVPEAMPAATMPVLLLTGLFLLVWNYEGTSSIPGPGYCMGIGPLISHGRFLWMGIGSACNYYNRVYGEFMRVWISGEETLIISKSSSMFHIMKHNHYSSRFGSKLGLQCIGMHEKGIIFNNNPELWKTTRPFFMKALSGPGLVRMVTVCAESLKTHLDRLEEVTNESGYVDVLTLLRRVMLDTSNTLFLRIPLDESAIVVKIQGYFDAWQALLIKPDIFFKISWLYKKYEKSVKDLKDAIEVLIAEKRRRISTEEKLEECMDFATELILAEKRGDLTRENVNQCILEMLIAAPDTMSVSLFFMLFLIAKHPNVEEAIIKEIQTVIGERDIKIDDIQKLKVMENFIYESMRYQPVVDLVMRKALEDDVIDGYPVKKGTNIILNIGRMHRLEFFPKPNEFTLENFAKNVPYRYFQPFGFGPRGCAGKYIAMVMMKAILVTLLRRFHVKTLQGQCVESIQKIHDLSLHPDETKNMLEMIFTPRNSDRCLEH
Briefly: Aromatase inhibition assay. Format: biochemical.

For `O=c1cc(-c2ccc(Br)cc2)oc2ccccc12` [4′-bromoflavone, reference compound], in assay [1] (read-out: QR1 CD (concentration that double the activity)), the EC (2-fold activity) stood at 0.01 µM.
On to `c1ccc(-c2cc3ccccc3[nH]2)cc1` [Compound 1, 2-phenylindole], for which the “Anti-aromatase activity (in words)” value at aromatase was “only slight activity”. The “QR1 induction activity (in words)” value in assay [1] was “very good QR1 induction activity”.
For `c1ccc(C2Cc3ccccc3N2)cc1` (stereo not shown) [Compound 1f, 2-phenylindoline], in that order: “did not show significant activity” and “weak activity”.
Regarding `N#Cc1c(-c2ccccc2)[nH]c2ccccc12` [Compound 2d, 3-cyano-2-phenylindole], on aromatase, inhibition was half-maximal at 1610 ± 200 nM (IC50). For the same compound, the inhibition (in general, the relative decrease from the control value, in per cent) at 50 µM on aromatase (read-out: Aromatase % inhibition) stood at 88 ± 1.07%. Moreover, the fold induction at 50 µM in assay [1] was 0.55 ± 0.64.
With `COc1cc(OC)cc(-c2cc3ccccc3[nH]2)c1` [Compound 7], the “Fold increase in QR1 induction activity over 1” value in assay [1] (relative to 1) was 2 fold.
Take `Clc1ccc(-c2cc3ccccc3[nH]2)cc1Cl` [Compound 8]: the “QR1 induction activity (in words)” value in assay [1] is “inactive”.
`Clc1ccccc1-c1cc2ccccc2[nH]1` [Compound 9]: the fold induction at 50 µM in assay [1] is under 1.5.
As for `Fc1cc(F)cc(-c2cc3ccccc3[nH]2)c1` [Compound 15], in assay [1], the “QR1 induction activity (in words)” value is “inactive”.
In the case of `CCCCCc1ccc(-c2cc3ccccc3[nH]2)cc1` [Compound 17], the “QR1 induction activity (in words)” value in assay [1] is “inactive”.
The same measure, in the same setting: for `Nc1ccc(-c2cc3ccccc3[nH]2)cc1` [Compound 18] the value was “inactive”; for `CN(C)c1ccc(-c2cc3ccccc3[nH]2)cc1` [Compound 20], “inactive”.
Same read-out and setting: for `c1cncc(-c2cc3ccccc3[nH]2)c1` [Compound 21] the value was “inactive”.
Turning to `c1ccc2[nH]c(-c3ccsc3)cc2c1` [Compound 22], on aromatase, the “Anti-aromatase activity (in words)” value is on record as “did not show encouraging activity”. Further, in assay [1], the “QR1 induction activity (in words)” value was “inactive”.
With `COc1ccc2ccc(-c3cc4ccccc4[nH]3)cc2c1` [Compound 23], the “Anti-aromatase activity (in words)” value at aromatase is given as “did not show encouraging activity”. Besides, the “QR1 induction activity (in words)” value in assay [1] is “inactive”.
`Cn1c(-c2ccccc2)cc2cc([N+](=O)[O-])ccc21` [Compound 24a]: at aromatase (relative to 24), the “Fold increase in aromatase activity over free NH derivative 24” value came out at 2 fold.
In the case of `Cc1ccccc1-c1cc2cc([N+](=O)[O-])ccc2[nH]1` [Compound 25], in assay [1], the fold induction at 50 µM is under 1.5.
With `O=[N+]([O-])c1ccc2[nH]c(-c3ccc(Cl)c(Cl)c3)cc2c1` [Compound 31], the “Anti-aromatase activity (in words)” value on aromatase is given as “totally destroyed aromatase activity”.
For the compound `Cn1c(-c2ccc(Cl)c(Cl)c2)cc2cc([N+](=O)[O-])ccc21` [Compound 31a], the “Anti-aromatase activity (in words)” value at aromatase is given as “not active”.
The same measure, in the same setting: for `c1ccc(-c2nc3ccccc3[nH]2)cc1` [Compound 34, 2-phenylbenzimidazole, reference compound] the value was “not active”.
